Assays:
Type in all cases: cell-based, human
[1] = test system: histamine-evoked Ca^2+ signals in hBASMCs; assay: Histamine-evoked Ca2+ signals in populations of fluo-4-loaded hBASMCs; conditions: for effect on the sensitivity to histamine: trans Ned-19 1 μM or ryanodine 50 μM, 5 min, HBSS; for effect on histamine-evoked Ca2+ signals: pre-treatment: 8-Br-cGMP, IBMX 20 min, forskolin 10 μM, NKH477 10 μM, butaprost 10 μM, TCS2510 1 μM 5 min
Procedure: (§1) Two methods were used to measure [Ca^2+]i in populations of hBASMCs. For measurements using a FlexStation III plate-reader (Molecular Devices, Sunnyvale, CA, USA), hBASMCs were seeded into 96-well plates (10^4 cells per well). After about 4 days, when the cells were confluent, the medium was replaced with SMGM-2 without serum or growth factor supplements, and the cells were used after a further 24 h. This period in serum-free medium increased by about 2-fold the amplitude of the increases in [Ca^2+]i evoked by histamine (results not shown). Cells were washed with HEPES-buffered saline (HBS: 135 mM NaCl, 5.9 mM KCl, 1.2 mM MgCl2, 1.5 mM CaCl2, 11.6 mM HEPES, 11.5 mM D-glucose, pH 7.3), and loaded with fluo-4 by incubation with fluo-4-AM (2 μM) in HBS (100 μL per well) containing pluronic F127 (0.02%, v/v) and probenecid (2.5 mM). After 1 h at 20 °C, the medium was replaced with HBS (100 μL per well) containing probenecid (2.5 mM). After a further incubation at 20 °C for 1 h, the medium was replaced with HBS (60–80 μL per well) or nominally Ca^2+-free HBS, and the cells were used immediately for experiments at 20 °C. In some experiments, BAPTA (2.5 mM) was added to HBS during the recording; this reduced the free [Ca^2+] of the HBS to ∼120 nM without affecting the pH. Drug additions (20 μL at 4 or 5 times the final concentration) were added automatically. Fluorescence from fluo-4 (excitation 485 nm, emission 525 nm) was recorded at 1.44-s intervals using Softmax Pro 5.4 (Molecular Devices). Fluorescence was calibrated to [Ca^2+]i from: [Ca^2+]i=KDCa×(F−Fmin/Fmax−F) where, KDCa is the equilibrium dissociation constant of fluo-4 for Ca^2+ (345 nM), F is the recorded fluorescence, and Fmin and Fmax are the fluorescence values recorded after addition of triton-X-100 (0.1%, v/v) with either BAPTA (10 mM, Fmin) or CaCl2 (10 mM, Fmax). Although treatment with triton-X-100 releases fluo-4 from cells into the medium, the fluo-4 fluorescence is captured with the same efficiency whether it is trapped within cells or dispersed within the small volume of the wells (unpublished observations). Fmax was determined for each well at the end of an experiment, and the average value was used for each column of 8 wells. Fmin was determined from parallel wells on each plate.
For measurements of [Ca^2+]i using an FDSS 7000 FLIPR (Hamamatsu), hBASMCs were seeded into 384-well plates (8000 cells per well) in 20 μL of SMGM-2 containing 5% serum. After 24 h, the medium was replaced with 15 μL of serum-free SMGM-2, and after a further 6 h the cells were loaded with Ca^2+ indicator by addition of FLIPR calcium 4 assay kit (Molecular Devices) supplemented with probenecid (2.5 mM). The exact composition of this ‘no-wash’ indicator kit is not disclosed by the manufacturer, but it contains fluo-4-AM and components that reduce background fluorescence. The manufacture’s stock solution was diluted 10-fold into HBSS containing BSA (0.1%, w/v) and HEPES (20 mM); 5 μL of this solution was then added to each well (containing 15 μL of serum-free SMGM-2). After 2 h at 37 °C in humidified air containing 5% CO2, the plate was used for experiments at 20 °C. Most additions (5 μL) were prepared in HBSS supplemented with HEPES (20 mM) and BSA (0.1%, w/v). For more prolonged incubations, drugs were diluted in the initial loading medium (to avoid changes in dye-loading during the ‘no wash’ protocol). Fluorescence signals (excitation at 480 nm, emission at 540 nm) were calibrated to [Ca^2+]i after measurement of Fmin and Fmax uniquely for each well, using a KDCa = 345 nM.
All concentration-effect relationships were determined by addition of different drug concentrations to individual wells in the same multi-well plate, rather than by sequential additions to the same well. […]

[2] = test system: Ca^2+ signals evoked by histamine, bradykinin or carbachol in hBASMCs; assay: GPCR-evoked Ca2+ signals (histamine, bradykinin or carbachol, stated together) in hBASMCs; conditions: HBSS; for whether the inhibitor substantially affected the Ca2+ signals evoked by histamine, bradykinin or carbachol: ryanodine 50 μM or trans Ned-19 1 μM, 5 min
Procedure: as §1, with “This period in serum-free medium increased by about 2-fold the amplitude of the increases in [Ca^2+]i evoked by histamine (results not shown).” left out, “In some experiments, BAPTA (2.5 mM) was added to HBS during the recording; this reduced the free [Ca^2+] of the HBS to ∼120 nM without affecting the pH.” left out, “Although treatment with triton-X-100 releases fluo-4 from cells into the medium, the fluo-4 fluorescence is captured with the same efficiency whether it is trapped within cells or dispersed within the small volume of the wells (unpublished observations).” left out
(§2) For measurements of [Ca^2+]i using an FDSS 7000 FLIPR (Hamamatsu), hBASMCs were seeded into 384-well plates (8000 cells per well) in 20 μL of SMGM-2 containing 5% serum. […] The exact composition of this ‘no-wash’ indicator kit is not disclosed by the manufacturer, but it contains fluo-4-AM and components that reduce background fluorescence. […]

[3] = test system: intracellular cAMP in hBASMCs; assay: Intracellular cAMP in hBASMCs by mass spectrometry; conditions: IBMX 20 min; MS
Procedure: These methods were modified from. Confluent cultures of hBASMCs in 48-well plates were serum-deprived (6–24 h) and the medium was then replaced with HBSS (300 μL) containing HEPES (5 mM) and BSA (0.1%, w/v). Cells were stimulated at 20 °C, and reactions were terminated by aspiration of the medium and addition of acetonitrile (170 μL) containing dibutyryl cAMP (0.5 μM, to provide an internal standard). The plates were centrifuged (1500 xg, 15 min, 4 °C), supernatants (158 μL) were transferred to a 96-well, glass-coated plate (Thermo Scientific), and aqueous NH4HCO3 (pH 9.4, 93 μL) was added to each sample. After mixing and centrifugation (1500 xg, 15 min, 4 °C), samples were stored at 4 °C before analysis. Samples were analyzed by liquid chromatography tandem mass spectrometry (LC–MS/MS) using a Waters Acquity UPLC and a Sciex 5500 mass spectrometer equipped with an electrospray ionization source. ATP, ADP, AMP and cAMP were analyzed using a ZIC-pHILIC polymeric column (5-μm particle size, […]) maintained at 35 °C. Calibration standards were prepared in the lysis medium containing the internal standard, dibutyryl cAMP (0.5 μM). […] Samples were detected using multiple reaction monitoring in negative ion mode using the following parent-to-daughter mass transitions: cAMP m/z 327.9 → 133.9 (DP −100 V, CE −33 eV), AMP m/z 345.9 → 134.0 (DP −100 V, CE −50 eV), ADP m/z 426.0 → 134.0 (DP −100 V, CE −30 eV), ATP m/z 505.9 → 408.0 (DP −100 V, CE −35 eV), and internal standard dibutyryl cAMP m/z 468.1 → 175.0 (DP −100 V, CE −35 eV). Concentration-effect relationships were fitted to logistic equations for each experiment using GraphPad Prism (version 5, GraphPad Software, La Jolla, CA, USA), from which half-maximally effective drug concentrations (EC50), maximal responses, and Hill slopes were determined. For statistical analyses, maximal responses, Hill slopes and pEC50 (-logEC50) or pIC50 (-log of the half-maximal inhibitory concentration, IC50) values determined for individual experiments were pooled for statistical analysis. […]

[4] = test system: carbachol-evoked Ca^2+ signals in hBASMCs; assay: Carbachol-evoked Ca2+ signals in populations of fluo-4-loaded hBASMCs
Procedure: as §1, with “This period in serum-free medium increased by about 2-fold the amplitude of the increases in [Ca^2+]i evoked by histamine (results not shown).” left out, “In some experiments, BAPTA (2.5 mM) was added to HBS during the recording; this reduced the free [Ca^2+] of the HBS to ∼120 nM without affecting the pH.” left out, “Although treatment with triton-X-100 releases fluo-4 from cells into the medium, the fluo-4 fluorescence is captured with the same efficiency whether it is trapped within cells or dispersed within the small volume of the wells (unpublished observations).” left out
as §2

[5] = test system: bradykinin-evoked Ca^2+ signals in hBASMCs; assay: Bradykinin-evoked Ca2+ signals in populations of fluo-4-loaded hBASMCs
Procedure: as §1, with “This period in serum-free medium increased by about 2-fold the amplitude of the increases in [Ca^2+]i evoked by histamine (results not shown).” left out, “In some experiments, BAPTA (2.5 mM) was added to HBS during the recording; this reduced the free [Ca^2+] of the HBS to ∼120 nM without affecting the pH.” left out, “Although treatment with triton-X-100 releases fluo-4 from cells into the medium, the fluo-4 fluorescence is captured with the same efficiency whether it is trapped within cells or dispersed within the small volume of the wells (unpublished observations).” left out
as §2

[6] = test system: intracellular Ca^2+ stores of hBASMCs; assay: Ca2+ content of intracellular stores, by ionomycin in Ca2+-free HBS; conditions: isoproterenol, forskolin 10 μM, 5 min, 2-APB 5 min, higher concentrations needed than for inhibition of GPCR-evoked signals
L-type Ca^2+ channels = assay: Depolarization (K+)-evoked increase in [Ca2+]i in single fura-2-loaded hBASMCs; conditions: nimodipine 10 μM, 5 min; extracellular Na+ replaced with K+ 140 mM; all 44 cells, mean ± SD, single experiment; 50 ± 11 nM in absence
[7] = test system: LPA-evoked Ca^2+ signals in hBASMCs; assay: LPA-evoked Ca2+ signals in populations of fluo-4-loaded hBASMCs; conditions: PTX 100 ng·mL^−1, 24 h
Procedure: Two methods were used to measure [Ca^2+]i in populations of hBASMCs. For measurements using a FlexStation III plate-reader (Molecular Devices, Sunnyvale, CA, USA), hBASMCs were seeded into 96-well plates (10^4 cells per well). After about 4 days, when the cells were confluent, the medium was replaced with SMGM-2 without serum or growth factor supplements, and the cells were used after a further 24 h. […] Cells were washed with HEPES-buffered saline (HBS: 135 mM NaCl, 5.9 mM KCl, 1.2 mM MgCl2, 1.5 mM CaCl2, 11.6 mM HEPES, 11.5 mM D-glucose, pH 7.3), and loaded with fluo-4 by incubation with fluo-4-AM (2 μM) in HBS (100 μL per well) containing pluronic F127 (0.02%, v/v) and probenecid (2.5 mM). […] Fluorescence from fluo-4 (excitation 485 nm, emission 525 nm) was recorded at 1.44-s intervals using Softmax Pro 5.4 (Molecular Devices). Fluorescence was calibrated to [Ca^2+]i from: [Ca^2+]i=KDCa×(F−Fmin/Fmax−F) where, KDCa is the equilibrium dissociation constant of fluo-4 for Ca^2+ (345 nM), F is the recorded fluorescence, and Fmin and Fmax are the fluorescence values recorded after addition of triton-X-100 (0.1%, v/v) with either BAPTA (10 mM, Fmin) or CaCl2 (10 mM, Fmax). […] Fmax was determined for each well at the end of an experiment, and the average value was used for each column of 8 wells. Fmin was determined from parallel wells on each plate. […]

COc1ccc([C@H]2N[C@H](C(=O)O)Cc3c2[nH]c2ccccc32)cc1CN1CCN(c2ccccc2F)CC1 (relative stereo) [trans Ned-19, trans-Ned-19]
effect on the sensitivity to histamine [1]: slightly reduced | whether the inhibitor substantially affected the Ca2+ signals evoked by histamine, bradykinin or carbachol [2]: Neither

CC(C)Cn1c(=O)n(C)c(=O)c2[nH]cnc21 [IBMX, 3-isobutyl-1-methylxanthine]
effect on histamine-evoked Ca2+ signals [1]: an inhibition of histamine-evoked Ca^2+ signals | effect on intracellular cAMP [3]: an accumulation of intracellular cAMP

CCCCCCCCCCCCCCCCCCOCC(COP(=O)([O-])OCC[N+](C)(C)C)OC (centres unmarked) [edelfosine]
IC50 ([4]; Homo sapiens, carbachol 10 μM, pre-incubation 30 min, n = 3, read-out: pIC50 for inhibition of the Ca2+ signals evoked by carbachol (converted)): 39.8 µM | IC50 ([1]; Homo sapiens, histamine 10 μM, pre-incubation 30 min, n = 3, read-out: pIC50 for inhibition of the Ca2+ signals evoked by histamine (converted)): 22.9 µM | IC50 ([5]; Homo sapiens, bradykinin 1 nM, pre-incubation 30 min, n = 3, read-out: pIC50 for inhibition of the Ca2+ signals evoked by bradykinin (converted)): 33.9 µM

C=C[C@@]1(C)CC(=O)[C@]2(O)[C@@]3(C)[C@@H](O)CCC(C)(C)[C@@H]3[C@H](O)[C@H](OC(C)=O)[C@@]2(C)O1 [forskolin]
effect on histamine-evoked Ca2+ signals [1]: mimicked the effect of isoproterenol | effect on the Ca2+ content of the intracellular stores [6]: Neither isoproterenol nor forskolin (10 μM, 5 min) affected

COCCOC(=O)C1=C(C)NC(C)=C(C(=O)OC(C)C)C1c1cccc([N+](=O)[O-])c1 (centres unmarked) [nimodipine]
peak increase in [Ca2+]i on depolarization in presence of inhibitor (L-type Ca^2+ channels): 20 ± 14 nM | effect on the increases in [Ca2+]i evoked by histamine, bradykinin and carbachol ([2]; added 5 min before stimulus, nimodipine 10 μM, 2-APB indicated concentrations): unaffected

CC(C)[C@@]1(O)[C@@H](OC(=O)c2ccc[nH]2)[C@@]2(O)[C@@]3(C)C[C@]4(O)O[C@@]5([C@H](O)[C@@H](C)CC[C@]35O)[C@@]2(O)[C@@]14C [ryanodine]
effect on the sensitivity to histamine [1]: slightly reduced | whether the inhibitor substantially affected the Ca2+ signals evoked by histamine, bradykinin or carbachol [2]: Neither

Pertussis toxin [PTX]
effect of pre-treatment on maximal amplitude of and sensitivity of the Ca2+ signals evoked by LPA [7]: significantly reduced | effect of pre-treatment on maximal amplitude of and sensitivity of the Ca2+ signals evoked by carbachol ([4]; PTX 100 ng·mL^−1, 24 h): significantly reduced | effect of pre-treatment on the Ca2+ signals evoked by histamine ([1]; PTX 100 ng·mL^−1, 24 h): had no effect | effect of pre-treatment on the Ca2+ signals evoked by bradykinin ([5]; PTX 100 ng·mL^−1, 24 h): had no effect

From PMC5893132, “Selective inhibition of histamine-evoked Ca^2+ signals by compartmentalized cAMP in human bronchial airway smooth muscle cells” (Cell Calcium, 2018)
